In patent US8815814B2, “Cosmetic composition containing oligopeptides” (Cognis IP Management GmbH, priority 2010, dated 2014):
Residues, ends and D or L forms follow the SMILES beside them.

What was measured:
[1] = test system: glutaredoxin-2 gene (GLRX2); experiment: GLRX2 mRNA level by qRT-PCR in human dermal fibroblasts; assay type: cell-based; conditions: peptide at 1.0 μg/ml, 6 hours
Procedure: The peptide Acetyl-Val-Leu-Leu-Lys (SEQ ID NO:1) was incubated on human dermal fibroblasts cultured in vitro and the expression of the glutaredoxin-2 gene (GLRX2), involved in cellular anti-oxidative defenses) was measured using a qRT-PCR method.
The human dermal fibroblasts were cultured within growth medium enriched with FCS at 10% and incubated for 1 day at 37° C. Then the growth medium was exchanged for a standard medium without FCS with or without the Acetyl-Val-Leu-Leu-Lys (SEQ ID NO:1) peptide at 1.0 μg/ml. Cells were incubated for 6 hours at 37° C. before extraction of total RNA. The level of GLRX2 mRNAs was evaluated comparatively to the level of HPRT1 (hypoxanthine phosphoribosyltransferase 1) mRNA as housekeeping gene (qRT-PCR method) for each condition.
The results were calculated through the level of GLRX2 mRNA measured in the control condition (without peptide treatment) as 100% and presented as a mean +/−SEM from 3 assays in duplicated.

[2] = test system: collagen type XIV gene (COL14A1); experiment: COL14A1 mRNA level by qRT-PCR in human dermal fibroblasts; assay type: cell-based; conditions: peptide at 1.0 μg/ml; for level of COL14A1 mRNA (control = 100%): vs EEF1A1 housekeeping gene, mean +/− SEM
Procedure: The peptide Acetyl-Val-Leu-Leu-Lys (SEQ ID NO:1) was incubated on human dermal fibroblasts cultured in vitro and the expression of the collagen type XIV gene (COL14A1) was measured using a quantitative reverse-transcription and polymerase chain reaction (qRT-PCR) method.
(§1) The human dermal fibroblasts were cultured within growth medium enriched with FCS at 10% and incubated for 1 day at 37° C. Then the growth medium was exchanged for a standard medium without FCS but with or without the Acetyl-Val-Leu-Leu-Lys (SEQ ID NO:1) peptide at 1.0 μg/ml. Cells were then incubated for 24 hours, 48 hours or 72 hours at 37° C. before extraction of total RNA. The level of COL14A1 mRNAs in the different conditions was evaluated comparatively to the level of EEF1A1 mRNA as housekeeping gene (qRT-PCR method) for each condition.
The results were calculated through the level of COL14A1 mRNA measured in the control condition (without peptide treatment) for the different incubation times as 100% and presented as a mean+/−SEM from 3 or 5 assays in duplicate.

tropoelastin gene (ELN) = experiment: ELN mRNA level by qRT-PCR in human dermal fibroblasts; assay type: cell-based; conditions: peptide at 1.0 μg/ml; for level of ELN mRNA (control = 100%): vs EEF1A1 housekeeping gene, mean +/− SEM
Procedure: The peptide Acetyl-Val-Leu-Leu-Lys (SEQ ID NO:1) was incubated on human dermal fibroblasts cultured in vitro and the expression of the tropoelastin gene (ELN) was measured using a qRT-PCR method.
as §1, with “were” for “were then”, “ELN” for “COL14A1”, “EEF1A 1” for “EEF1A1”, “condition. The results were calculated through the level of ELN mRNA measured in the control condition (without peptide treatment) as 100% and presented as a mean+/−SEM from 3 assays in duplicate.” for “condition.”

collagen type I = experiment: Collagen type I immuno-staining (ICC) in cultured human dermal fibroblasts; assay type: cell-based; conditions: peptide at 5.1 μg/ml; for % of staining occupation (collagen type I immuno-staining): human dermal fibroblasts, 72 hours incubation, sodium ascorbyl at 20 μg/ml, control 10.68 +/− 1, mean +/− SEM, 6 measures
Procedure: The peptide Acetyl-Val-Leu-Leu-Lys (SEQ ID NO:1)was incubated on human dermal fibroblasts cultured in vitro and the expression of the collagen type I was measured using an immunocytochemistry (ICC) method.
The human dermal fibroblasts were cultured within growth medium enriched with Foetal Calf Serum (FCS) at 10% and incubated for 2 days at 37° C. Then the growth medium was exchanged for a standard medium containing sodium ascorbyl at 5 μg/ml with FCS at 1% and with or without the Acetyl-Val-Leu-Leu-Lys (SEQ ID NO:1)peptide at 5.1 μg/ml. A positive control condition with sodium ascorbyl at 20 μg/ml was performed. Cells were incubated for 72 hours at 37° C. with the peptide. Cultured human dermal fibroblasts were fixed by acetone for 10 minutes at −20° C. and incubated for 1 hour at room temperature with a primary antibody against collagen type I [Abcam] diluted at 1/250. Fluorescein isothiocyanate (FITC) labelled secondary antibody [CliniSciences, France] was used for revelation. The obtained immuno-staining was observed using a confocal laser scanning microscope [TCS SPE, Leica, France] and quantified by an image analyzer [Quantimet Q5001W, Leica, France]. The staining occupation was evaluated. The results were presented as a mean +/−SEM (Standard Error of Mean) from 6 measures.

injured rabbit cornea = conditions: Hara et al., Exp Eye Res, 2001; cited from earlier work
[3] = test system: epithelial cells from rabbit cornea; conditions: Hara et al., Exp Eye Res, 2001; cited from earlier work

CC(=O)N[C@H](C(=O)N[C@@H](CC(C)C)C(=O)N[C@@H](CC(C)C)C(=O)N[C@@H](CCCCN)C(=O)O)C(C)C [Acetyl-Val-Leu-Leu-Lys, N-Acetyl-Val-Leu-Leu-Lys-OH] (Ac-VLLK-OH)
effect on the level of GLRX2 gene expression (in words) [1]: specifically increased
level of GLRX2 mRNA (control = 100%) ([1]; vs HPRT1 housekeeping gene, mean +/− SEM): 145 +/− 20 (*) %
level of COL14A1 mRNA (control = 100%) ([2]; treatment duration 24 hours): 175 +/− 23 (*) %
level of COL14A1 mRNA (control = 100%) ([2]; treatment duration 48 hours): 220 +/− 32 (*) %
level of COL14A1 mRNA (control = 100%) ([2]; treatment duration 72 hours): 213 +/− 27 (*) %
effect on the level of COL14A1 gene expression (in words) ([2]; detected after 24 hours, maintained during 3 days): specifically and significantly increased
effect on the level of ELN gene expression (in words) (tropoelastin gene (ELN)): specifically and significantly increased
level of ELN mRNA (control = 100%) (tropoelastin gene (ELN); treatment duration 24 hours): 127 +/− 11 (*) %
level of ELN mRNA (control = 100%) (tropoelastin gene (ELN); treatment duration 48 hours): 143 +/− 10 (*) %
level of ELN mRNA (control = 100%) (tropoelastin gene (ELN); treatment duration 72 hours): 217 +/− 49 (*) %
% of staining occupation (collagen type I immuno-staining) (collagen type I): 31.07 +/− 2.22 (**) %
effect on the level of collagen type I (in words) (collagen type I; compared with sodium ascorbyl at 20 μg/ml): significantly increased

Sodium ascorbyl [reference compound]
% of staining occupation (collagen type I immuno-staining) (collagen type I): 18.01 +/− 1.07 (**) %

Val-Leu-Leu-His (VLLH; tetrapeptide)
wound healing activity on injured rabbit cornea (in words) (injured rabbit cornea): significant wound healing activity
proliferation of epithelial cells from rabbit cornea (in words) [3]: stimulate proliferation
